Tests used:
S. cerevisiae BY4741 = experiment: Biocompatibility of extractants: glucose utilization rate of the microorganism during extraction; format: cell-based, Saccharomyces cerevisiae; conditions: percentage of average value for oleyl alcohol (Comparative Example A); 25 mL extractant/75 mL culture broth, 40 g/L initial isobutanol, 30° C., 8 hours
Description: (§1) Each extractant was contacted with a fermentation medium and isobutanol as described below to determine the partition coefficient of the extractant. The biocompatibility of the extractant was also assessed by determining the glucose utilization rate of the microorganism during the extraction.
The following experimental procedure was used. In these experiments the amount of ethanol depended on the amount of glucose consumption but typical ethanol values were in the range of 10-15 g/L. The presence of ethanol in these concentrations is not expected to impact glucose consumption and the partitioning of butanol into the extractant. Seed shake flasks containing 250 mL of yeast extract/peptone/dextrose (YPD) medium were inoculated with 150 μL of S. cerevisiae BY4741 inoculum and incubated for about 14 hours at 30° C. with shaking at 250 rpm in a table top shaker (Innova 4230, New Brunswick scientific, Edison, N.J.). When the OD600 reached about 0.4, the glucose concentration in the culture broth was analyzed rapidly by a Select Biochemistry Analyzer and extra glucose was added to reach a final concentration of about 25 g/L. The culture broth was divided into 125 mL flasks, each containing 75 mL of the culture broth. After one hour of incubation at 30° C. with shaking at 200 rpm, 3.75 mL of isobutanol was added to each flask in order to bring the initial isobutanol concentration in the aqueous phase to 40 g/L. The incubation of the biphasic fermentation medium comprising an aqueous phase and a butanol-containing organic phase was continued at 30° C. with shaking at 100 rpm for 8 hours. The aqueous and organic phases in each flask were separated by decantation. The aqueous phase was centrifuged (2 minutes on 13,000 rpm with an Eppendorf centrifuge model 5415R) to remove cells and the supernatant analyzed for glucose, ethanol, and isobutanol by HPLC.
Glucose utilization rates were calculated by noting the difference in glucose concentrations between samples and the time between samples and computing a rate accordingly, for example ([glucose]t2−[glucose]t1)/(t2−t1) where t1 refers to a time earlier than t2 and [glucose] means the concentration of glucose.
Comparative Example A was repeated three times and the results averaged. For the extractants of Comparative Examples A-G, the partition coefficient for isobutanol and the glucose utilization rate are expressed below in Table 3 as percentages of the average values determined for oleyl alcohol (Comparative Example A). A value greater than 100% indicates a result which is numerically larger than that for oleyl alcohol. A value less than 100% indicates a result which is numerically smaller than that for oleyl alcohol. A value of 100% indicates a result which is the same as that for oleyl alcohol. As disclosed in US Patent Application Publication No. 2009-0305370 A1, oleyl alcohol performed well in single solvent extractive fermentations for isobutanol production.
(§2) The extractants listed in Table 2 were evaluated using the procedure described above, but with the following modifications. After the culture broth was divided into 125 mL flasks, each containing 75 mL of the culture broth, oleyl alcohol was added as the first solvent to each flask in the amount shown in Table 2.
For the extractants of Examples 1-15, the partition coefficients for isobutanol and the glucose utilization rate are expressed below in Table 3, together with the results for Comparative examples A-G, as percentages of the average values determined for oleyl alcohol (Comparative Example A). A value greater than 100% indicates a result which is numerically larger than that for oleyl alcohol. A value less than 100% indicates a result which is numerically smaller than that for oleyl alcohol. A value of 100% indicates a result which is the same as that for oleyl alcohol.

[1] = Partition coefficient for isobutanol between extractant (organic phase) and fermentation medium (aqueous phase); format: physicochemical; conditions: isobutanol partition coefficient (organic/aqueous) as percentage of average value for oleyl alcohol (Comparative Example A); 40 g/L initial isobutanol, 30° C.
Description: as §1
The following experimental procedure was used. […] When the OD600 reached about 0.4, the glucose concentration in the culture broth was analyzed rapidly by a Select Biochemistry Analyzer and extra glucose was added to reach a final concentration of about 25 g/L. The culture broth was divided into 125 mL flasks, each containing 75 mL of the culture broth. After one hour of incubation at 30° C. with shaking at 200 rpm, 3.75 mL of isobutanol was added to each flask in order to bring the initial isobutanol concentration in the aqueous phase to 40 g/L. The incubation of the biphasic fermentation medium comprising an aqueous phase and a butanol-containing organic phase was continued at 30° C. with shaking at 100 rpm for 8 hours. The aqueous and organic phases in each flask were separated by decantation.
Partition coefficients for the isobutanol distribution between the organic and aqueous phases were calculated from the known amount of isobutanol added to the flask and the isobutanol concentration data measured for the aqueous phase. The concentration of isobutanol in the extractant phase was determined by the mass balance. The partition coefficient was determined as the ratio of the isobutanol concentrations in the organic and the aqueous phases, i.e., Kp=[Isobutanol]Organic phase/[isobutanol]Aqueous phase.
(§3) A value greater than 100% indicates a result which is numerically larger than that for oleyl alcohol. A value less than 100% indicates a result which is numerically smaller than that for oleyl alcohol. A value of 100% indicates a result which is the same as that for oleyl alcohol.
as §2, §3

Structure (SMILES)	% KP [1] [%]	% Glucose Utilization Rate (S. cerevisiae BY4741) [%]
CCCCCCCCCCCCO [Comparative Ex. G, 1-Dodecanol]		84
CCCCCCCCCO [Comparative Ex. B, 1-Nonanol]		0
CCCCCCCC/C=C\CCCCCCCCO [Comparative Ex. A, Oleyl Alcohol]	100	100
CCCCCCCCC=O [Comparative Ex. E, 1-Nonanal]	132.6	0

The next lines start with results.

% KP [1] [%]	Structure (SMILES)	% Glucose Utilization Rate (S. cerevisiae BY4741) [%]
127.0	CCCCCCCCCCCO [Comparative Ex. C, 1-Undecanol]	0
139.0	CCCCCCCCCCO [Comparative Ex. F, 1-Decanol]	0
139.0	CCCCCCCCCC(C)O (stereo not drawn) [Comparative Ex. D, 2-Undecanol]	0

Source: patent publication US20110097773A1, “METHOD FOR PRODUCING BUTANOL USING EXTRACTIVE FERMENTATION” (BUTAMAX(TM) ADVANCED BIOFUELS LLC, priority 2009, published 2011)
